The values below are quoted from earlier work in patent US20250170053A1, “LONG-LASTING RESORBABLE SUBCUTANEOUS IMPLANT WITH PROLONGED RELEASE OF PRE-CONCENTRATED PHARMACOLOGICALLY ACTIVE SUBSTANCE IN A POLYMER FOR THE ADJUVANT TREATMENT OF EPILEPSY, CHRONIC PAIN AND ANXIETY, AND METHOD” (priority 2022, published 2025).

Series [1] has as its system rodents. To be noted: systemic administration.
Series [2] has as its system healthy volunteers and patients with anxiety disorders. To be noted: inverted U-shaped dose-response curve in humans.
Series [3] has as its system patients with treatment-resistant epilepsy. Conditions: 2 to 50 mg/kg/day oral CBD, twelve weeks.

On to `C=C(C)[C@@H]1CCC(C)=C[C@H]1c1c(O)cc(CCCCC)cc1O` [CBD, cannabidiol], for which the “effect in the elevated plus-maze test” value in series [1] is “antianxiety effects”. Also, the anxiolytic activity result in series [2] is given as “significant anxiolytic activity”. In series [3], the “individuals who discontinued treatment due to some adverse event” value is listed as 3%; the “safety and tolerability of the drug” value is on record as “acceptable”. In series [3] (adjunctive therapy, patients aged one to thirty years), the “average reduction in seizure frequency” value is on record as 36.5%.
